Results from patent US8664243B2, “Sulfonamide compound and crystal thereof” (Asahi Kasei Pharma Corporation, priority 2007, dated 2014).

Experiments:
Format in all cases: physicochemical
[1] = Measurement of water content (coulometric titration method); settings: as prepared, sample 5 mg
Description: For evaluation of purity of Compound 1 or the substance in the form of a salt, the area percentage method based on HPLC is convenient. For evaluation of water content of Compound 1 or the substance in the form of a salt, the volumetric titration method, the coulometric titration method described in Japanese Pharmacopoeia, General Test Methods, “Water Determination”, the loss on drying test and the like can be used. When sample weight is small, the coulometric titration method can be preferably chosen.

[2] = Thermal stability test (sealed glass vial, dark place, 60° C.); settings: for Appearance / Water content / Purity: 60° C., dark, sealed vial; for Purity: HPLC
Procedure: Thermal stability of Compound 1 or the substance in the form of a salt can be evaluated by, for example, sealing a sample in a glass vial or the like, storing the vial under a severe temperature condition such as 40 to 80° C. in a dark place for a given period of time, and then observing or measuring appearance, purity, water content and the like of Compound 1 or the substance in the form of a salt. Change of purity before and after storage especially serves as an important index of thermal stability. For example, the evaluation is preferably performed under a storage condition of 60° C. • High performance liquid chromatography apparatus: LC-10A Series (Shimadzu) or Agilent 1100 series (Agilent Technologies) • Solution concentration: 500 μg/ml • Injection: 10 μl • Detector: Ultraviolet absorptiometer (measurement wavelength: 245 nm) • Column: XBridge Shield RP18 5 μm, internal diameter: 4.6 mm, length: 15 cm (Waters) • Column temperature: Constant temperature around 40° C. • Mobile phase A: 20 mmol/l Sodium phosphate buffer (pH 7.0) • Mobile phase B: Acetonitrile • Liquid feeding program: A concentration gradient was formed by changing the mixing ratio of the mobile phase A and the mobile phase B as shown in Table 1. • Flow rate: 1.0 ml/minute • Water content measurement apparatus: AQ-7 (Hiranuma Sangyo) • Sample amount: 5 mg • Anolyte: Aqualyte RS (Sigma-Aldrich) • Catholyte: Aqualyte CN (Sigma-Aldrich) The monohydrochloride obtained by the method described in Example 3, the monohydrobromide obtained by the method described in Example 4, and the dihydrochloride as a control were weighed in a glass vial in an amount of 40 mg each, and the glass vial was sealed. Each sample was stored in a dark place at 60° C. for 2 to 4 weeks, and after the storage, appearance was evaluated by visual inspection. Further, purity was measured under the conditions of Test Example 7, and water content was measured under the conditions of Test Example 8.

[3] = Hygroscopicity Test 2 (25° C. and 84% RH; free base, salts and salt mixtures); settings: for Appearance / Water content / Purity: 25° C. and 84% RH, dark; for Purity: HPLC
Procedure: (§1) Hygroscopicity of Compound 1 or the substance in the form of a salt can be evaluated by putting a sample on a glass weighing dish, storing the dish in a dark place for a given period of time in an open state at a temperature of 25 to 40° C. under a humidification condition of about 75 to 94% relative humidity, and then observing or measuring appearance, purity, water content and the like of Compound 1 or the substance in the form of a salt. Increase of water content before and after storage especially serves as an important hygroscopic index. For example, the evaluation is preferably performed after storage conditions of 25° C. and 84% RH. • High performance liquid chromatography apparatus: LC-10A Series (Shimadzu) or Agilent 1100 series (Agilent Technologies) • Solution concentration: 500 μg/ml • Injection: 10 μl • Detector: Ultraviolet absorptiometer (measurement wavelength: 245 nm) • Column: XBridge Shield RP18 5 μm, internal diameter: 4.6 mm, length: 15 cm (Waters) • Column temperature: Constant temperature around 40° C. • Mobile phase A: 20 mmol/l Sodium phosphate buffer (pH 7.0) • Mobile phase B: Acetonitrile • Liquid feeding program: A concentration gradient was formed by changing the mixing ratio of the mobile phase A and the mobile phase B as shown in Table 1. • Flow rate: 1.0 ml/minute • Water content measurement apparatus: AQ-7 (Hiranuma Sangyo) • Sample amount: 5 mg • Anolyte: Aqualyte RS (Sigma-Aldrich) • Catholyte: Aqualyte CN (Sigma-Aldrich) Compound 1 obtained by a method similar to the method described in Example 1 (two kinds of lots), the monohydrochloride obtained by the method described in Example 3, the dihydrochloride, and mixtures of the monohydrochloride and the dihydrochloride at ratios of 9:1, 8:2, 6:4, 4:6 and 2:8 were weighed on a glass weighing dish in an amount of each 40 mg, and each sample was stored in a dark place at 25° C. and 84% RH for 2 to 4 weeks. After the storage, appearance was evaluated by visual inspection. Further, purity was measured under the conditions of Test Example 7, and water content was measured under the conditions of Test Example 8.

[4] = Hygroscopicity Test 1 (open glass weighing dish, dark place, 25° C. and 84% RH); settings: for Appearance / Water content / Purity: 25° C. and 84% RH, dark, open; for Purity: HPLC
Procedure: as §1, with “(Sigma-Aldrich) The” for “(Sigma-Aldrich) Compound 1 obtained by a method similar to the method described in Example 1 (two kinds of lots), the”, “the monohydrobromide obtained by” for “the dihydrochloride, and mixtures of”, “the method described in Example 4,” for “the monohydrochloride”, “dihydrochloride as a control” for “dihydrochloride at ratios of 9:1, 8:2, 6:4, 4:6 and 2:8”, “of” for “of each”, “40 mg each,” for “40 mg,”

[5] = after storage at 60° C. for 4 weeks
[6] = after storage at 25° C. and 84% RH for 4 weeks

Water content [1]: 0.20%
Appearance ([2]; after 2 weeks): White
Water content ([2]; after 2 weeks): 0.06%
Appearance ([2]; after 4 weeks): White
Water content ([2]; after 4 weeks): 0.08%
Appearance ([2]; before storage): White
Water content ([2]; before storage): 0.20%
Purity ([2]; after 2 weeks): 99.9%
Purity ([2]; after 4 weeks): 99.7%
Purity ([2]; before storage): 99.4%
Thermal stability compared with the dihydrochloride ([2]; Test Example 9, 60° C.): more satisfactory thermal stability
Change of appearance [2, 5]: no change of appearance
Degradation of purity [2, 5]: no degradation of purity
Appearance ([3]; after 2 weeks): White
Water content ([3]; after 2 weeks): 0.1%
Appearance ([3]; before storage): White
Water content ([3]; before storage): 0.0%
Purity ([3]; after 2 weeks): 100.0%
Purity ([3]; before storage): 100.0%
Appearance ([4]; after 2 weeks): White
Water content ([4]; after 2 weeks): 0.23%
Appearance ([4]; after 4 weeks): White
Water content ([4]; after 4 weeks): 0.26%
Appearance ([4]; before storage): White
Water content ([4]; before storage): 0.20%
Purity ([4]; after 2 weeks): 99.8%
Purity ([4]; after 4 weeks): 99.6%
Purity ([4]; before storage): 99.4%
Hygroscopicity compared with the dihydrochloride ([4]; Test Example 10, 25° C. and 84% RH): remarkably lower hygroscopicity
Change of appearance [4, 6]: no change of appearance
Degradation of purity [4, 6]: no degradation of purity
Increase of water content [4, 6]: no substantial increase of water content
Compound: CN[C@H]1CCN(S(=O)(=O)c2cccc3cncc(Cl)c23)C1.Cl [Monohydrochloride, (S)-1-(4-chloro-5-isoquinolinesulfonyl)-3-(methylamino)pyrrolidine monohydrochloride]
Hygroscopicity compared with Compound 1 (free base) and mixtures ([3]; Test Example 11, 25° C. and 84% RH): hygroscopicity lower than any of Compound 1 (free base) and mixtures of the monohydrochloride and the dihydrochloride
